In ChEMBL document CHEMBL4257451, “Synergism of fused bicyclic 2-aminothiazolyl compounds with polymyxin B against Klebsiella pneumoniae” (Medchemcomm, 2017):
Blank lines part the entries; values can stand above or below the compound they belong to. Activity calls are given as the source filed them. No cut-off for these calls is given here.

Key:
[1] = test system: Klebsiella pneumoniae; experiment: Synergistic antibacterial activity against Klebsiella pneumoniae SIPI-KPN-1712 assessed as polymixin B MIC at 4 ug/ml by broth microdilution method (reference value: 32 ug/ml); format: functional
[2] = test system: Klebsiella pneumoniae; experiment: Synergistic antibacterial activity against Klebsiella pneumoniae SIPI-KPN-1712 assessed as fractional Inhibitory concentration index in presence of polymixin B at 2 ug/ml by broth microdilution method; format: functional
[3] = test system: Klebsiella pneumoniae; experiment: Synergistic antibacterial activity against Klebsiella pneumoniae SIPI-KPN-1712 assessed as fold reduction in polymixin B MIC at 4 ug/ml by broth microdilution method relative to polymixin B alone; format: functional
[4] = test system: Klebsiella pneumoniae; experiment: Growth inhibition of Klebsiella pneumoniae SIPI-KPN-1712 by broth microdilution method; format: organism-based; settings: in vitro
[5] = test system: Escherichia coli; experiment: Synergistic antibacterial activity against Escherichia coli ATCC 25922 assessed as polymixin B MIC at 4 ug/ml by broth microdilution method (reference value: 0.25 ug/ml); format: functional
[6] = test system: Pseudomonas aeruginosa; experiment: Synergistic antibacterial activity against Pseudomonas aeruginosa ATCC 27853 in presence of polymixin B by broth microdilution method (reference value: 1 ug/ml); format: functional
[7] = test system: Klebsiella pneumoniae; experiment: Synergistic antibacterial activity against Klebsiella pneumoniae KPN-2677 assessed as fold reduction in polymixin B MIC by broth microdilution method relative to polymixin B alone; format: functional
[8] = test system: Acinetobacter baumannii; experiment: Synergistic antibacterial activity against Acinetobacter baumannii isolate 3 in presence of polymixin B by broth microdilution method; format: functional
[9] = test system: Klebsiella pneumoniae; experiment: Synergistic antibacterial activity against Klebsiella pneumoniae KPN-2967 in presence of polymixin B by broth microdilution method; format: functional
[10] = test system: Acinetobacter baumannii; experiment: Synergistic antibacterial activity against Acinetobacter baumannii isolate 3 assessed as polymixin B MIC at 4 ug/ml by broth microdilution method (reference value: 0.5 ug/ml); format: functional
[11] = test system: Escherichia coli; experiment: Growth inhibition of Escherichia coli ATCC 25922 by broth microdilution method; format: organism-based
[12] = test system: Pseudomonas aeruginosa; experiment: Synergistic antibacterial activity against Pseudomonas aeruginosa isolate 1399 assessed as polymixin B MIC at 4 ug/ml by broth microdilution method (reference value: 1 ug/ml); format: functional
[13] = test system: Klebsiella pneumoniae; experiment: Synergistic antibacterial activity against Klebsiella pneumoniae SIPI-KPN-1712 assessed as fold reduction in polymixin B MIC at 16 ug/ml by broth microdilution method relative to polymixin B alone; format: functional
[14] = test system: Klebsiella pneumoniae; experiment: Growth inhibition of Klebsiella pneumoniae KPN-2677 by broth microdilution method; format: organism-based
[15] = test system: Klebsiella pneumoniae; experiment: Synergistic antibacterial activity against Klebsiella pneumoniae KPN-2677 in presence of polymixin B by broth microdilution method; format: functional
[16] = test system: Pseudomonas aeruginosa; experiment: Growth inhibition of Pseudomonas aeruginosa isolate 1292 by broth microdilution method; format: organism-based; settings: in vivo
[17] = test system: Pseudomonas aeruginosa; experiment: Synergistic antibacterial activity against Pseudomonas aeruginosa isolate 1292 in presence of polymixin B by broth microdilution method (reference value: 2 ug/ml); format: functional
[18] = test system: Acinetobacter baumannii; experiment: Synergistic antibacterial activity against Acinetobacter baumannii isolate 4 in presence of polymixin B by broth microdilution method; format: functional
[19] = test system: Klebsiella pneumoniae; experiment: Synergistic antibacterial activity against Klebsiella pneumoniae KPN-2967 assessed as fold reduction in polymixin B MIC by broth microdilution method relative to polymixin B alone; format: functional
[20] = test system: Acinetobacter baumannii; experiment: Growth inhibition of Acinetobacter baumannii isolate 1 by broth microdilution method; format: organism-based
[21] = test system: Acinetobacter baumannii; experiment: Synergistic antibacterial activity against Acinetobacter baumannii ATCC 19606 in presence of polymixin B by broth microdilution method; format: functional, ATCC 19606 = CIP 70.34 = JCM 6841
[22] = test system: Acinetobacter baumannii; experiment: Growth inhibition of Acinetobacter baumannii isolate 2 by broth microdilution method; format: organism-based
[23] = test system: Escherichia coli; experiment: Synergistic antibacterial activity against Escherichia coli ATCC 25922 in presence of polymixin B by broth microdilution method; format: functional
[24] = test system: Klebsiella pneumoniae; experiment: Synergistic bactericidal activity against Klebsiella pneumoniae SIPI-KPN-1712 at 4 ug/ml in presence of 2 to 4 ug/ml polymixin B up to 24 hrs by time kill assay; format: functional, organism-based
[25] = test system: Escherichia coli; experiment: Synergistic antibacterial activity against Escherichia coli isolate 2945 in presence of polymixin B by broth microdilution method (reference value: 0.125 ug/ml); format: functional
[26] = test system: Pseudomonas aeruginosa; experiment: Synergistic antibacterial activity against Pseudomonas aeruginosa ATCC 27853 assessed as polymixin B MIC at 4 ug/ml by broth microdilution method (reference value: 1 ug/ml); format: functional
[27] = test system: Escherichia coli; experiment: Growth inhibition of Escherichia coli isolate 2944 by broth microdilution method; format: organism-based
[28] = test system: Acinetobacter baumannii; experiment: Synergistic antibacterial activity against Acinetobacter baumannii isolate 4 assessed as polymixin B MIC at 4 ug/ml by broth microdilution method (reference value: 0.5 ug/ml); format: functional
[29] = test system: Klebsiella pneumoniae; experiment: Synergistic bactericidal activity against Klebsiella pneumoniae SIPI-KPN-1712 at 4 ug/ml in presence of 0.5 to 1 ug/ml polymixin B up to 24 hrs by time kill assay; format: functional, organism-based
[30] = test system: Escherichia coli; experiment: Synergistic antibacterial activity against Escherichia coli isolate 2945 assessed as polymixin B MIC at 4 ug/ml by broth microdilution method (reference value: 0.125 ug/ml); format: functional
[31] = test system: Acinetobacter baumannii; experiment: Growth inhibition of Acinetobacter baumannii isolate 4 by broth microdilution method; format: organism-based
[32] = test system: Klebsiella pneumoniae; experiment: Synergistic antibacterial activity against Klebsiella pneumoniae KPN-2677 assessed as polymixin B MIC at 4 ug/ml by broth microdilution method (reference value: 0.5 ug/ml); format: functional
[33] = test system: Klebsiella pneumoniae; experiment: Synergistic antibacterial activity against Klebsiella pneumoniae SIPI-KPN-1712 assessed as fold reduction in polymixin B MIC at 2 ug/ml by broth microdilution method relative to polymixin B alone; format: functional
[34] = test system: Pseudomonas aeruginosa; experiment: Synergistic antibacterial activity against Pseudomonas aeruginosa isolate 1399 in presence of polymixin B by broth microdilution method (reference value: 1 ug/ml); format: functional
[35] = test system: Acinetobacter baumannii; experiment: Synergistic antibacterial activity against Acinetobacter baumannii isolate 1 in presence of polymixin B by broth microdilution method; format: functional
[36] = test system: Klebsiella pneumoniae; experiment: Growth inhibition of Klebsiella pneumoniae KPN-2967 by broth microdilution method; format: organism-based; settings: in vivo
[37] = test system: Escherichia coli; experiment: Synergistic antibacterial activity against Escherichia coli isolate 2944 assessed as polymixin B MIC at 4 ug/ml by broth microdilution method (reference value: 0.125 ug/ml); format: functional
[38] = test system: Klebsiella pneumoniae; experiment: Synergistic antibacterial activity against Klebsiella pneumoniae SIPI-KPN-1712 assessed as fold reduction in polymixin B MIC at 1 ug/ml by broth microdilution method relative to polymixin B alone; format: functional
[39] = test system: Klebsiella pneumoniae; experiment: Synergistic antibacterial activity against Klebsiella pneumoniae SIPI-KPN-1712 assessed as fold reduction in polymixin B MIC at 8 ug/ml by broth microdilution method relative to polymixin B alone; format: functional
[40] = test system: Escherichia coli; experiment: Growth inhibition of Escherichia coli isolate 2945 by broth microdilution method; format: organism-based
[41] = test system: Pseudomonas aeruginosa; experiment: Growth inhibition of Pseudomonas aeruginosa ATCC 27853 by broth microdilution method; format: organism-based
[42] = test system: Acinetobacter baumannii; experiment: Synergistic antibacterial activity against Acinetobacter baumannii isolate 2 assessed as polymixin B MIC at 4 ug/ml by broth microdilution method (reference value: 1 ug/ml); format: functional
[43] = test system: Acinetobacter baumannii; experiment: Growth inhibition of Acinetobacter baumannii isolate 3 by broth microdilution method; format: organism-based
[44] = test system: Acinetobacter baumannii; experiment: Synergistic antibacterial activity against Acinetobacter baumannii isolate 2 in presence of polymixin B by broth microdilution method; format: functional
[45] = test system: Pseudomonas aeruginosa; experiment: Growth inhibition of Pseudomonas aeruginosa isolate 1399 by broth microdilution method; format: organism-based; settings: in vivo
[46] = test system: Acinetobacter baumannii; experiment: Synergistic antibacterial activity against Acinetobacter baumannii ATCC 19606 assessed as polymixin B MIC at 4 ug/ml by broth microdilution method (reference value: 0.5 ug/ml); format: functional; settings: ATCC 19606 = CIP 70.34 = JCM 6841
[47] = test system: Acinetobacter baumannii; experiment: Synergistic antibacterial activity against Acinetobacter baumannii isolate 1 assessed as polymixin B MIC at 4 ug/ml by broth microdilution method (reference value: 2 ug/ml); format: functional
[48] = test system: Pseudomonas aeruginosa; experiment: Synergistic antibacterial activity against Pseudomonas aeruginosa isolate 1292 assessed as polymixin B MIC at 4 ug/ml by broth microdilution method (reference value: 2 ug/ml); format: functional
[49] = test system: Escherichia coli; experiment: Synergistic antibacterial activity against Escherichia coli isolate 2944 in presence of polymixin B by broth microdilution method (reference value: 0.125 ug/ml); format: functional
[50] = test system: Klebsiella pneumoniae; experiment: Synergistic antibacterial activity against Klebsiella pneumoniae KPN-2967 assessed as polymixin B MIC at 4 ug/ml by broth microdilution method (reference value: 0.5 ug/ml); format: functional
[51] = test system: Acinetobacter baumannii; experiment: Growth inhibition of Acinetobacter baumannii ATCC 19606 by broth microdilution method; format: organism-based, ATCC 19606 = CIP 70.34 = JCM 6841
[52] = test system: Klebsiella pneumoniae; experiment: Bactericidal activity against Klebsiella pneumoniae SIPI-KPN-1712 at 4 ug/ml up to 24 hrs by time kill assay; format: ADME, organism-based

Structure (SMILES): COC1CCCc2nc(Nc3ccc(C#N)cc3)sc21 (stereo not given)
MIC [1]: 16 µg/mL
fractional inhibitory concentration index (FICI) [2]: 0.53
MIC [4]: > 128 µg/mL

Structure (SMILES): COC1CCCc2nc(NCc3ccccc3)sc21 (stereo not given)
MIC [1]: 32 µg/mL
fractional inhibitory concentration index (FICI) [2]: 1.03
MIC [4]: > 128 µg/mL

Structure (SMILES): O=C(OC1CCCc2nc(Nc3ccc(C(F)(F)F)cc3)sc21)n1ccnc1 (stereo not given)
MIC [1]: 16 µg/mL
fractional inhibitory concentration index (FICI) [2]: 0.53
MIC [4]: > 128 µg/mL

Structure (SMILES): COC1CCCc2nc(Nc3ccc(C(C)(C)C)cc3)sc21 (stereo not given)
MIC [1]: 16 µg/mL
fractional inhibitory concentration index (FICI) [2]: 0.53
MIC [4]: > 128 µg/mL

Structure (SMILES): COC1CCCc2nc(Nc3cccc(C(F)(F)F)c3)sc21 (stereo not given)
MIC [1]: 16 µg/mL
fractional inhibitory concentration index (FICI) [2]: 0.53
MIC [4]: > 128 µg/mL

The remaining compounds from weak to strong by MIC [1], led by results:

MIC [1]: 16 µg/mL
Structure (SMILES): COC1CCCc2nc(Nc3cccnc3)sc21 (stereo not given)
fractional inhibitory concentration index (FICI) [2]: 0.53
MIC [4]: > 128 µg/mL

MIC [1]: 16 µg/mL
Structure (SMILES): CCOC1CCCc2nc(Nc3ccc(Cl)cn3)sc21 (stereo not given)
fractional inhibitory concentration index (FICI) [2]: 0.53
MIC [4]: > 128 µg/mL

MIC [1]: 16 µg/mL
Structure (SMILES): Cc1ccc(Nc2nc3c(s2)C(OC(C)C)CCC3)cc1 (stereo not given)
fractional inhibitory concentration index (FICI) [2]: 0.53
MIC [4]: > 128 µg/mL

MIC [1]: 2 µg/mL
Structure (SMILES): COC1CCCc2nc(Nc3ccc(Br)cc3)sc21 (stereo not given)
fractional inhibitory concentration index (FICI) [2]: 0.09
fold change (FC) [3]: 16
MIC [4]: > 128 µg/mL

MIC [5]: 0.25 µg/mL
MIC [10]: 0.5 µg/mL
MIC [1]: 0.5 µg/mL
MIC [12]: 1 µg/mL
MIC [26]: 1 µg/mL
MIC [28]: 0.5 µg/mL
MIC [30]: 0.125 µg/mL
MIC [32]: 0.5 µg/mL
MIC [37]: 0.125 µg/mL
MIC [42]: 1 µg/mL
MIC [46]: 0.5 µg/mL
MIC [47]: 2 µg/mL
MIC [48]: 2 µg/mL
MIC [50]: 0.5 µg/mL
Structure (SMILES): OC1CCCc2nc(Nc3ccc(Cl)cc3)sc21 (stereo not given)
fractional inhibitory concentration index (FICI) [6]: 1.03
fold change (FC) [7]: 32
fractional inhibitory concentration index (FICI) [8]: 0.53
fractional inhibitory concentration index (FICI) [9]: 0.16
fractional inhibitory concentration index (FICI) [2]: 0.05
MIC [11]: > 64 µg/mL
fold change (FC) [13]: 128
MIC [14]: > 64 µg/mL
fractional inhibitory concentration index (FICI) [15]: 0.06
MIC [16]: > 64 µg/mL
fractional inhibitory concentration index (FICI) [17]: 1.03
fractional inhibitory concentration index (FICI) [18]: 0.53
fold change (FC) [19]: 8
MIC [20]: > 64 µg/mL
fractional inhibitory concentration index (FICI) [21]: 0.53
MIC [22]: > 64 µg/mL
fractional inhibitory concentration index (FICI) [23]: 0.53
Activity [24]: Active
fractional inhibitory concentration index (FICI) [25]: 0.28
MIC [27]: > 64 µg/mL
fold change (FC) [3]: 64
Activity [29]: inactive
MIC [31]: > 64 µg/mL
fold change (FC) [33]: 16
fractional inhibitory concentration index (FICI) [34]: 0.53
fractional inhibitory concentration index (FICI) [35]: 0.53
MIC [36]: > 64 µg/mL
fold change (FC) [38]: 4
MIC [4]: > 128 µg/mL
fold change (FC) [39]: 128
MIC [40]: > 64 µg/mL
MIC [41]: > 64 µg/mL
MIC [43]: > 64 µg/mL
fractional inhibitory concentration index (FICI) [44]: 0.28
MIC [45]: > 64 µg/mL
fractional inhibitory concentration index (FICI) [49]: 0.28
MIC [51]: > 64 µg/mL
Activity [52]: Non-Toxic
